In patent US20120101100A1 (priority 2008, published 2012) one finds MIC, IC50 and inhibition data, which are given here for one molecule.

The subject of experiment [1] is Streptococcus pneumoniae. Briefly: Bacterial susceptibility testing in liquid media (MIC). Type of experiment: cell-based. The following applies: against Streptococcus pneumoniae; lowest concentration reducing growth by 80% or more; 37° C., 24 hrs. On the procedure: Compounds were tested for antimicrobial activity by susceptibility testing in liquid media. Compounds were dissolved in dimethylsulfoxide and tested in 10 doubling dilutions in the susceptibility assays. The organisms used in the assay were grown overnight on suitable agar media and then suspended in a liquid medium appropriate for the growth of the organism. The suspension was a 0.5 McFarland and a further 1 in 10 dilution was made into the same liquid medium to prepare the final organism suspension in 100 μL. Plates were incubated under appropriate conditions at 37° C. for 24 hrs prior to reading. The Minimum Inhibitory Concentration was determined as the lowest drug concentration able to reduce growth by 80% or more.

In experiment [2] the target is S. aureus GyrB ATPase (Staphylococcus aureus, UniProt P0A0K8). Nature of the experiment: S. aureus (SAU) GyrB ATPase inhibition, malachite green phosphate detection (E. coli GyrA + S. aureus GyrB). Format: biochemical. An outline of the steps: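 E. coli GyrA and S. aureus GyrB (1.25 nM each) with 500 μM ATP and 5 μg/ml sheared salmon sperm DNA in 50 mM Hepes pH 7.5, 8.0 mM MgCl2. Released phosphate detected with ammonium molybdate/malachite green at 650 nm; 2% DMSO as 0% and 2 μM novobiocin as 100% inhibition; IC50 from 10 concentrations.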
Sequence of S. aureus GyrB ATPase (P0A0K8 whole entry): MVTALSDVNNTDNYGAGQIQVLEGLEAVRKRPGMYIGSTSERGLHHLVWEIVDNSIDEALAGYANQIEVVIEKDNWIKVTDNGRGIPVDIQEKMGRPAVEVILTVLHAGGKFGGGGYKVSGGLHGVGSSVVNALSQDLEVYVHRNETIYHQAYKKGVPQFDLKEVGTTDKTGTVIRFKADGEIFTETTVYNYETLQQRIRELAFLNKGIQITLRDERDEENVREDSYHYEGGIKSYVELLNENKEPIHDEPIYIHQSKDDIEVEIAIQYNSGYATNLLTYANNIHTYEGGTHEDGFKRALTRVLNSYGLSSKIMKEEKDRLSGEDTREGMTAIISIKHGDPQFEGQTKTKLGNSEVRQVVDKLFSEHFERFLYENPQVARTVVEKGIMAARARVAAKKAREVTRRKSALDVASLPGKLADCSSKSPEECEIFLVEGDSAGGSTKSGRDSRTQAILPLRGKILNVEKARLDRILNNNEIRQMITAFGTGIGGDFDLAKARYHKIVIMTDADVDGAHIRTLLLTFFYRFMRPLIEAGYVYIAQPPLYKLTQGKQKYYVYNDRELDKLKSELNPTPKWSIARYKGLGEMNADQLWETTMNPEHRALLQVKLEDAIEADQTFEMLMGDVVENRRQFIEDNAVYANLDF
Sequence of S. aureus GyrB ATPase (P0AES4 whole entry, further chain): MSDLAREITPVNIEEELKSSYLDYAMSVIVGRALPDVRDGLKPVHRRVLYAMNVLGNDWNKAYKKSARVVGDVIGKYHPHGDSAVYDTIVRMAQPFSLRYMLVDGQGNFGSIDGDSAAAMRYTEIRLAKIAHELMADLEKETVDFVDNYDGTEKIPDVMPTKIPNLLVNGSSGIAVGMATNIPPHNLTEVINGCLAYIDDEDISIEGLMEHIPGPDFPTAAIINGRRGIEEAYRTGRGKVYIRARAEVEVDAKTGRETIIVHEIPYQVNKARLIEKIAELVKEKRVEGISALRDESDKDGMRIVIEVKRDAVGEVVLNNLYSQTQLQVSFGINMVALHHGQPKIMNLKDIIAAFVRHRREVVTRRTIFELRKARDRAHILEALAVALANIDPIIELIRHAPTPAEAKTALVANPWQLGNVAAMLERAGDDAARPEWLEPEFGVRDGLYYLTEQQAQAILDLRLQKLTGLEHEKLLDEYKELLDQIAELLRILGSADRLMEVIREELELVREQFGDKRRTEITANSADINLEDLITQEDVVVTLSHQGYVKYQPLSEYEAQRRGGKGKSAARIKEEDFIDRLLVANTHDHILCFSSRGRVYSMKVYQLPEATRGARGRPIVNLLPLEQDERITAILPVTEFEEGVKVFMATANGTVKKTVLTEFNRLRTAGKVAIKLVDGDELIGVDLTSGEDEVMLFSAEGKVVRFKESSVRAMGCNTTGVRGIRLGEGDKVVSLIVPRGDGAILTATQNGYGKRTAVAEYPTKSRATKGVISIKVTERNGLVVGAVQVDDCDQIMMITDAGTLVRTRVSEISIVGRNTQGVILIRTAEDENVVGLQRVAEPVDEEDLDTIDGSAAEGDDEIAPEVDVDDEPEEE

pIC50: −log10 of the molar value. ≈ marks a conversion by molar mass, not a printed value.

For orientation: MIC means the smallest concentration in the dilution series that meets the test's criterion for growth inhibition. As usually defined, the pIC50 is the IC50 on a negative log10 scale, so that one unit is a factor of ten. As usually defined, the inhibition is the change of the read-out against control, counted positive when it falls.

On to `CCNC(=O)Nc1cc(-c2nc(C(F)(F)F)cs2)c(-c2cccnc2)cn1` [Example 14, 1-Ethyl-3-(4-(4-(trifluoromethyl)thiazol-2-yl)-3,3′-bipyridin-6-yl)urea], for which inhibition of growth in experiment [1] (MIC) required 0.39 µM (≈ 0.153 µg/mL). Also, the negative-log IC50 (pIC50) in experiment [2] (10 compound concentrations, 500 μM ATP) is 8.00. In addition, in experiment [2] (compound concentration of 1.0 μM unless otherwise noted, average value where assay was carried out more than once, read-out: S. aureus (SAU) GyrB ATPase % Inhibition), the inhibition at 1 µM turned out to be 86%.
